Test results from publication PMC8568530, “Inhibition of Vascular Smooth Muscle and Cancer Cell Proliferation by New VEGFR Inhibitors and Their Immunomodulator Effect: Design, Synthesis, and Biological Evaluation” (Oxidative Medicine and Cellular Longevity, 2021).

Assays:
[1] = test system: MCF-7; assay: MTT antiproliferative assay, MCF-7; format: cell-based; settings: Homo sapiens, MCF7, breast cancer MCF-7
Method: (§1) The in vitro antiproliferative activities of the newly synthesized compounds were evaluated against a panel of three human tumor cell lines, namely, breast cancer (MCF-7), hepatocellular carcinoma (HepG-2), and colorectal carcinoma (HCT-116) using the standard MTT method. The tested cell lines were selected depending on their VEGF overexpression. Sorafenib, the lead drug, was coassayed as a positive control.
(§2) The antiproliferative activity of the synthesized compounds was evaluated using MTT protocol as described (Supplementary data (available here)).

[2] = test system: BAX; assay: BAX level in HepG-2 cells; format: cell-based, human; settings: for BAX Conc.: HepG-2 cells treated with compound; for BAX Fold: HepG-2 cells, versus control
From the text: (§3) (2) Effects on Bcl-2 Family Proteins. The Bcl-2 family proteins are vital regulators of apoptosis cell death. Members of this family include the proapoptotic factor Bax which promotes cell death and the prosurvival (antiapoptotic) Bcl-2 which suppresses cell death. […] Results are expressed in Table 3.
(§4) (2) Effects on Bcl-2 Family Proteins. […] (Supplementary data).

[3] = test system: Bcl-2; assay: Bcl-2 level in HepG-2 cells; format: cell-based, human; settings: for Bcl-2 Conc.: HepG-2 cells treated with compound; for Bcl-2 Fold: HepG-2 cells, versus control
From the text: as §3, §4

[4] = test system: TNF-α; assay: TNF-α in HepG-2 supernatant (ELISA); format: cell-based, human
From the text: (1) Estimation of Human Tumor Necrosis Factor Alpha (TNF-α) in HepG-2 Supernatant. […] Celecoxib, a potent inhibitor of TNF-α-induced cytokine expressions, was used as a positive control. […] Among the tested compounds, compound 7a caused a remarkably significant reduction in TNF-α levels (87%) in comparison to celecoxib (86%).
The levels of TNF-α in cell culture supernatants were estimated by the ELISA technique according to the reported procedure.

[5] = test system: HCT-116; assay: MTT antiproliferative assay, HCT-116; format: cell-based; settings: Homo sapiens, colorectal carcinoma HCT-116
Method: as §1, §2

[6] = test system: HepG-2; assay: MTT antiproliferative assay, HepG-2; format: cell-based; settings: Homo sapiens, HepG2, hepatocellular carcinoma HepG-2
Method: as §1, §2

[7] = target: VEGFR-2 (Homo sapiens, UniProt P35968); assay: In vitro VEGFR-2 enzyme inhibition assay; format: biochemical; settings: read-out: IC50 against VEGFR-2
Chain of VEGFR-2 (P35968 20-1356): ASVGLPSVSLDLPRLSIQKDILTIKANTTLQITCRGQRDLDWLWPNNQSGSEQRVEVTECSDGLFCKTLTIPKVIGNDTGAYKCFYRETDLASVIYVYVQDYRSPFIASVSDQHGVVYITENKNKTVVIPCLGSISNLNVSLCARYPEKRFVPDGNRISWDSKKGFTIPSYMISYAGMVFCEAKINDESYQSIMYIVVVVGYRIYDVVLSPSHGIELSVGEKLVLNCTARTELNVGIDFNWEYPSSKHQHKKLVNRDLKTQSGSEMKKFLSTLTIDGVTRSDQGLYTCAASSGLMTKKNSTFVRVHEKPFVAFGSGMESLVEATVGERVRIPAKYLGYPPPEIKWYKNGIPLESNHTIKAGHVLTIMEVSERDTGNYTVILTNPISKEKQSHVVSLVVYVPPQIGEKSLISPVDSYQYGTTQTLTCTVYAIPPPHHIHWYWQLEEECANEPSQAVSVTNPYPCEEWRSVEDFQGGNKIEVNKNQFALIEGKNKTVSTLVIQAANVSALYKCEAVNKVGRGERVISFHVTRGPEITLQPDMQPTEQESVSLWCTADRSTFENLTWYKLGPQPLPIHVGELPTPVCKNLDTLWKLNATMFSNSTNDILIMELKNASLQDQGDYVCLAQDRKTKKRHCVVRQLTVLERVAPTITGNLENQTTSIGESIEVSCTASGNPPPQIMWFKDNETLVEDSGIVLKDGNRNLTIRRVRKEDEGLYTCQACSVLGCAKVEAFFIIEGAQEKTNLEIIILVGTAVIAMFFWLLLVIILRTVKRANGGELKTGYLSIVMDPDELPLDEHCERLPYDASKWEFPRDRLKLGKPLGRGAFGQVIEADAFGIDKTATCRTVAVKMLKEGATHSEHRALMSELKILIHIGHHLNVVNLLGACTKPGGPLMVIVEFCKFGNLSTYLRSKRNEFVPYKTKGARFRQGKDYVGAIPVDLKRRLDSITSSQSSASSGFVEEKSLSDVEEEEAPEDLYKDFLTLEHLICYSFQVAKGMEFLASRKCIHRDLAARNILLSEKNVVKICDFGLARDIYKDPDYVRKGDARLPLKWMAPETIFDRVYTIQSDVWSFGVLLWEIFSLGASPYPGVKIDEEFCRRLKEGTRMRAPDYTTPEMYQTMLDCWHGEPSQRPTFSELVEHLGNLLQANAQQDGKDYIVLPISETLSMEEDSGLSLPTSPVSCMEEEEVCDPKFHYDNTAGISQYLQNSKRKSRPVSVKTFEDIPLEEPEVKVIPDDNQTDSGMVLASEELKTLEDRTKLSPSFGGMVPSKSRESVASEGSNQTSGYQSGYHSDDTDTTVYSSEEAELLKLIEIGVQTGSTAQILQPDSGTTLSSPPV

[8] = test system: caspase-3; assay: Active caspase-3 level in HepG-2 cells; format: cell-based, human; settings: for Caspase 3 Conc.: HepG-2 cells treated with compound; for Caspase 3 Fold: HepG-2 cells, versus control
From the text: (1) Effects on the Levels of Active Caspase-3. A significant mechanism by which anticancer agents can affect cancer cells is apoptosis. Apoptosis is a process of automated cell death. The apoptosis mechanism is typically mediated by a group of proteases called caspases. Caspase-3 is activated in every mammalian cell type provoking the cell to die, considered one of the apoptosis marks.
(1) Effects on the Levels of Active Caspase-3. […] (Supplementary data).

[9] = test system: WI-38 cell line (normal human lung fibroblasts); assay: MTT cytotoxicity against normal cells WI-38; format: cell-based; settings: normal human lung fibroblasts WI-38
Method: The cytotoxicity values of the synthesized compounds against the WI-38 cell line (normal human lung fibroblasts) were also evaluated in vitro.
as §2

[10] = test system: MCF-7, HepG-2, and HCT-116; assay: MTT antiproliferative assay, panel of three tumor cell lines (range over lines); format: cell-based; settings: Homo sapiens, range over the three cancer cell lines, read-out: cytotoxic IC50, range over MCF-7, HepG-2 and HCT-116
Method: as §1, §2

SMILES | IC50 [1] [µM] | IC50 [5] [µM] | IC50 [7] [µM] | melting point [°C] | BAX Conc. [2] [pg/mL] | BAX Fold [2] [fold] | Bcl-2 Conc. [3] [pg/mL] | Bcl-2 Fold [3] [fold] | TNF-α % inhibition [4] [%] | IC50 [6] [µM] | Caspase 3 Conc. [8] [pg/mL] | Caspase 3 Fold [8] [fold] | IC50 [9] [µM] | IC50 [10] [µM]
O=C(Nc1ccc(C(=O)NC2CCCCC2)cc1)c1cccnc1 [Compound 5, N-(4-(Cyclohexylcarbamoyl)phenyl)nicotinamide] | 4.66 | 1.6 | 2.46 | – | 232.7 | 10.78 | 1.35 | 0.25 | 85 | 3.29 | 345.5 | 6.72 | 61.4 | –
O=C(NCc1ccccc1)c1ccc(NC(=O)c2cccnc2)cc1 [Compound 6, N-(4-(Benzylcarbamoyl)phenyl)nicotinamide] | 18.3 | 16.4 | – | 229 to 232 | – | – | – | – | – | 15.5 | – | – | 117 | –
COc1ccc(NC(=O)c2ccc(NC(=O)c3cccnc3)cc2)cc1 [Compound 7b, N-(4-((4-Methoxyphenyl)carbamoyl)phenyl)nicotinamide] | 1.25 | 2.54 | 3.45 | – | 257.5 | 11.93 | 1.92 | 0.36 | 72 | 2.12 | 397.61 | – | 82.2 | –
COc1ccccc1NC(=O)c1ccc(NC(=O)c2cccnc2)cc1 [Compound 7c, N-(4-((2-Methoxyphenyl)carbamoyl)phenyl)nicotinamide] | 11.8 | 15.3 | – | 185 to 187 | – | – | – | – | – | 19.4 | – | – | 137 | –
O=C(Nc1ccccc1)c1ccc(NC(=O)c2cccnc2)cc1 [Compound 7d, N-(4-(Phenylcarbamoyl)phenyl)nicotinamide] | 23.1 | 31.5 | – | 232 to 235 | – | – | – | – | – | 29.1 | – | – | 144 | –
O=C(Nc1ccc(Cl)cc1)c1ccc(NC(=O)c2cccnc2)cc1 [Compound 7e, N-(4-((4-Chlorophenyl)carbamoyl)phenyl)nicotinamide] | 13.4 | 17.8 | – | 272 to 274 | – | – | – | – | – | 22.4 | – | – | 143 | –
Cc1ccccc1NC(=O)c1ccc(NC(=O)c2cccnc2)cc1 [Compound 7f, N-(4-(o-Tolylcarbamoyl)phenyl)nicotinamide] | 20.5 | 18.3 | – | 194 to 197 | – | – | – | – | – | 31.4 | – | – | 157 | 14.1 to 31.4
O=C(Nc1ccc(C(=O)Nc2ccc(Cl)cc2Cl)cc1)c1cccnc1 [Compound 7g, N-(4-((2,4-Dichlorophenyl)carbamoyl)phenyl)nicotinamide] | 42.1 | 31.7 | – | 189 to 192 | – | – | – | – | – | 26.6 | – | – | 132 | –
Cc1cccc(NC(=O)c2ccc(NC(=O)c3cccnc3)cc2)c1 [Compound 7h, N-(4-(m-Tolylcarbamoyl)phenyl)nicotinamide] | 19.2 | 22.7 | – | 217 to 219 | – | – | – | – | – | 14.9 | – | – | 95.1 | 14.1 to 31.4
O=C(Nc1ccc(C(=O)Nc2ccccc2[N+](=O)[O-])cc1)c1cccnc1 [Compound 7i, N-(4-((2-Nitrophenyl)carbamoyl)phenyl)nicotinamide] | 16.1 | 18.4 | – | 198 to 201 | – | – | – | – | – | 15.2 | – | – | 103 | –
O=C(Nc1ccc(F)cc1)c1ccc(NC(=O)c2cccnc2)cc1 [Compound 7l, N-(4-((4-Fluorophenyl)carbamoyl)phenyl)nicotinamide] | 3.5 | 2.75 | 3.84 | – | 226.9 | 10.51 | 2.11 | 0.39 | 74 | 2.64 | 340.42 | 6.62 | 68.2 | –
O=C(NNC(=O)C(F)(F)F)c1ccc(NC(=O)c2cccnc2)cc1 [Compound 10, N-(4-(2-(2,2,2-Trifluoroacetyl)hydrazine-1-carbonyl)phenyl)nicotinamide] | 3.55 | 5.49 | 7.68 | – | 231.6 | 10.73 | 2.72 | 0.51 | 40 | 3.16 | 334.57 | 6.51 | 78.4 | –
CNC(=O)c1cc(Oc2ccc(NC(=O)Nc3ccc(Cl)c(C(F)(F)F)c3)cc2)ccn1 [Sorafenib, reference compound] | 4.32 | 5.28 | – | – | – | – | – | – | – | 3.76 | – | – | – | –

The next lines start with results.

IC50 [1] [µM] | IC50 [5] [µM] | IC50 [7] [µM] | melting point [°C] | SMILES | BAX Conc. [2] [pg/mL] | BAX Fold [2] [fold] | Bcl-2 Conc. [3] [pg/mL] | Bcl-2 Fold [3] [fold] | TNF-α % inhibition [4] [%] | IC50 [6] [µM] | Caspase 3 Conc. [8] [pg/mL] | Caspase 3 Fold [8] [fold] | IC50 [9] [µM] | IC50 [10] [µM]
12.3 | 17.2 | – | 263 to 265 | O=C(N/N=C/c1ccc(F)cc1)c1ccc(NC(=O)c2cccnc2)cc1 [Compound 11a, (E)-N-(4-(2-(4-Fluorobenzylidene)hydrazine-1-carbonyl)phenyl)-nicotinamide] | – | – | – | – | – | 15.5 | – | – | 85.1 | –
15.5 | 13.4 | – | 260 to 262 | O=C(N/N=C/c1ccccc1)c1ccc(NC(=O)c2cccnc2)cc1 [Compound 11b, (E)-N-(4-(2-Benzylidenehydrazine-1-carbonyl)phenyl)-nicotinamide] | – | – | – | – | – | 17.6 | – | – | 72.3 | –
4.15 | 1.94 | 2.74 | – | COc1ccc(/C=N/NC(=O)c2ccc(NC(=O)c3cccnc3)cc2)cc1 [Compound 11d, (E)-N-(4-(2-(4-Methoxybenzylidene)hydrazine-1-carbonyl)phenyl)-nicotinamide] | 237.9 | 11.02 | 1.72 | 0.32 | 81 | 2.23 | 391.23 | – | 50.3 | –
18.2 | 14.5 | – | 283 to 285 | O=C(N/N=C/c1c(Cl)cccc1Cl)c1ccc(NC(=O)c2cccnc2)cc1 [Compound 11e, (E)-N-(4-(2-(2,6-Dichlorobenzylidene)hydrazine-1-carbonyl)phenyl)-nicotinamide] | – | – | – | – | – | 23.9 | – | – | 80.1 | –
20.2 | 34.9 | – | 256 to 259 | O=C(N/N=C/c1ccc(O)cc1)c1ccc(NC(=O)c2cccnc2)cc1 [Compound 11h, (E)-N-(4-(2-(4-Hydroxybenzylidene)hydrazine-1-carbonyl)phenyl)-nicotinamide] | – | – | – | – | – | 31.1 | – | – | 103 | –
5.81 | 5.13 | 5.23 | – | O=C(CSc1nnc(-c2cccnc2)o1)Nc1ccc(Cl)cc1 [Compound 18a, N-(4-Chlorophenyl)-2-((5-(pyridin-3-yl)-1,3,4-oxadiazol-2-yl)thio)acetamide] | 113.5 | 5.26 | 2.63 | 0.49 | 45 | 8.29 | 267.64 | 5.20 | 123 | –
2.67 | 4.19 | 6.57 | – | O=C(CSc1nnc(-c2cccnc2)o1)Nc1ccccc1 [Compound 18b, N-Phenyl-2-((5-(pyridin-3-yl)-1,3,4-oxadiazol-2-yl)thio)acetamide] | 154.4 | 7.15 | 2.51 | 0.47 | 54 | 6.11 | 310.75 | 6.04 | 64.3 | –
19.4 | 21.7 | – | 167 to 169 | O=C(CSc1nnc(-c2cccnc2)o1)NCc1ccccc1 [Compound 18c, N-Benzyl-2-((5-(pyridin-3-yl)-1,3,4-oxadiazol-2-yl)thio)acetamide] | – | – | – | – | – | 8.59 | – | – | 92.1 | –
